Counter-ions that a name gives are not always drawn. Where only a bound is given, the exact number is not on record here.

For this test, the system named is behaviors of compound-treated mice. The test can be described thus: Neuropharmacological Assay (SmartCube). Type of test: in vivo. As to conditions: for minimal effective dose: Mus musculus, ip, 0.25 h, dose having 50% or more total activity in SmartCube, i.p., read-out: MED (minimal effective dose); for AD: ADHD (probability that activity matches class) / AG: analgesic (probability that activity matches class) / AX: anxiolytic (probability that activity matches class) / CE: cognitive enhancer (probability that activity matches class) / DP: anti-depressant (probability that activity matches class) / MS: mood stabilizer (probability that activity matches class) / PS: anti-psychotic (probability that activity matches class) / SD: sedative hypnotic (probability that activity matches class) / UN: uncharacterized CNS activity (probability that activity matches class): i.p. 15 min before behavioral test, most efficacious dose(s) of 3 doses. Summed up:
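Behavioral signatures were captured automatically by video, and each drug class received a probability for the best of three i.p. doses given 15 min pre-test (vehicle: Pharmasolve/PEG/propylene glycol). Potency is given as MED, the lowest mpk dose (typically 0.3–30) reaching 50% or more total activity.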

One may read the minimal effective dose as the lowest level tested that produced the effect sought. Take `CNC[C@@H]1OCCc2c(-c3cncs3)cccc21` (single isomer, unassigned) [Compound 68, hydrochloride salt]: the minimal effective dose is 3 to 10 mg/kg, the “AD: ADHD (probability that activity matches class)” value (shortened to “AD: ADHD”) is “++ (5% ≤ ++ <25%)”, the “AG: analgesic (probability that activity matches class)” value (shortened to “AG: analgesic”) is reported as “+ (LOQ ≤ + <5%)” and the “AX: anxiolytic (probability that activity matches class)” value (“AX: anxiolytic” below) is listed as “++ (5% ≤ ++ <25%)”. Moreover, the “CE: cognitive enhancer (probability that activity matches class)” value (shortened to “CE: cognitive enhancer”) is “+ (LOQ ≤ + <5%)”, the “DP: anti-depressant (probability that activity matches class)” value (“DP: anti-depressant” for short) is on record as “++++ (50% ≤ ++++)”, the “MS: mood stabilizer (probability that activity matches class)” value (“MS: mood stabilizer” for short) is recorded as “+ (LOQ ≤ + <5%)” and the “PS: anti-psychotic (probability that activity matches class)” value (“PS: anti-psychotic” for short) is “+ (LOQ ≤ + <5%)”. Further, the “SD: sedative hypnotic (probability that activity matches class)” value (“SD: sedative hypnotic” below) is on record as “+ (LOQ ≤ + <5%)” and the “UN: uncharacterized CNS activity (probability that activity matches class)” value (from here on “UN: uncharacterized CNS activity”) is reported as “++ (5% ≤ ++ <25%)”.

`CNC[C@H]1OCCc2c(-c3cncs3)cccc21` (single isomer, unassigned) [Compound 69, hydrochloride salt]: the minimal effective dose is not above 3 mg/kg, the “AD: ADHD” value is “+ (LOQ ≤ + <5%)”, the “AG: analgesic” value is “+ (LOQ ≤ + <5%)” and the “AX: anxiolytic” value was “++ (5% ≤ ++ <25%)”. The “CE: cognitive enhancer” value is “+ (LOQ ≤ + <5%)”, the “DP: anti-depressant” value is recorded as “++++ (50% ≤ ++++)”, the “MS: mood stabilizer” value is “+ (LOQ ≤ + <5%)” and the “PS: anti-psychotic” value is “+ (LOQ ≤ + <5%)”. Besides, the “SD: sedative hypnotic” value was “++ (5% ≤ ++ <25%)” and the “UN: uncharacterized CNS activity” value is reported as “+ (LOQ ≤ + <5%)”.

For the compound `NC[C@@H]1OCCc2c(-c3cncs3)cccc21` (single isomer, unassigned) [Compound 70, hydrochloride salt], the minimal effective dose lay in the range of 3 to 10 mg/kg, the “AD: ADHD” value was “++ (5% ≤ ++ <25%)”, the “AG: analgesic” value was “+ (LOQ ≤ + <5%)” and the “AX: anxiolytic” value is on record as “++ (5% ≤ ++ <25%)”. The “CE: cognitive enhancer” value is listed as “+ (LOQ ≤ + <5%)”, the “DP: anti-depressant” value is given as “++++ (50% ≤ ++++)”, the “MS: mood stabilizer” value is “+ (LOQ ≤ + <5%)” and the “PS: anti-psychotic” value is “+ (LOQ ≤ + <5%)”. The “SD: sedative hypnotic” value was “+ (LOQ ≤ + <5%)” and the “UN: uncharacterized CNS activity” value was “+++ (25% ≤ +++ <50%)”.

For `NC[C@H]1OCCc2c(-c3cncs3)cccc21` (single isomer, unassigned) [Compound 71, hydrochloride salt], the minimal effective dose is not above 3 mg/kg, the “AD: ADHD” value was “+++ (25% ≤ +++ <50%)”, the “AG: analgesic” value is recorded as “+ (LOQ ≤ + <5%)” and the “AX: anxiolytic” value is on record as “++ (5% ≤ ++ <25%)”. In addition, the “CE: cognitive enhancer” value is “+ (LOQ ≤ + <5%)”, the “DP: anti-depressant” value is on record as “++ (5% ≤ ++ <25%)”, the “MS: mood stabilizer” value is listed as “+ (LOQ ≤ + <5%)” and the “PS: anti-psychotic” value is given as “+ (LOQ ≤ + <5%)”. Besides, the “SD: sedative hypnotic” value was “++ (5% ≤ ++ <25%)” and the “UN: uncharacterized CNS activity” value was “++++ (50% ≤ ++++)”.

These data come from US10780074B2, “Compounds and uses thereof” (Sunovion Pharmaceuticals Inc., priority 2017, dated 2020).
